Experimental data published in PubChem BioAssay (NCI).
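Growth conditions: 96-well plates. Treatment: test compound, 48 hours, 5 concentrations. Analysis: linear interpolation between bracketing concentrations; unreached endpoints set to highest concentration. Definition used: TGI = concentration required for complete inhibition of growth.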

How the values were obtained:
Assay in all cases: growth of human tumour cells (NCI), 48 h
HCT-15 colon = tested on: HCT-15 colon
SK-MEL-5 melanoma = tested on: SK-MEL-5 melanoma
IGROV1 ovarian = tested on: IGROV1 ovarian
SN12C renal = tested on: SN12C renal
LOX IMVI melanoma = tested on: LOX IMVI melanoma
OVCAR-5 ovarian = tested on: OVCAR-5 ovarian
OVCAR-8 ovarian = tested on: OVCAR-8 ovarian
MOLT-4 leukemia = tested on: MOLT-4 leukemia
ACHN renal = tested on: ACHN renal
NCI-H226 lung = tested on: NCI-H226 lung
SK-MEL-2 melanoma = tested on: SK-MEL-2 melanoma
U251 CNS = tested on: U251 CNS
COLO 205 colon = tested on: COLO 205 colon
HCC-2998 colon = tested on: HCC-2998 colon
786-0 renal = tested on: 786-0 renal
EKVX NSCLC = tested on: EKVX NSCLC
KM12 colon = tested on: KM12 colon
A549 NSCLC = tested on: A549 NSCLC
RXF 393 renal = tested on: RXF 393 renal
NCI-H23 lung = tested on: NCI-H23 lung
NCI-H460 lung = tested on: NCI-H460 lung
OVCAR-3 ovarian = tested on: OVCAR-3 ovarian
MALME-3M melanoma = tested on: MALME-3M melanoma
SNB-19 CNS = tested on: SNB-19 CNS
K-562 leukemia = tested on: K-562 leukemia
HS 578T breast = tested on: HS 578T breast
MDA-MB-231 breast = tested on: MDA-MB-231 breast
UACC-62 melanoma = tested on: UACC-62 melanoma
SW-620 colon = tested on: SW-620 colon
NCI/ADR-RES ovarian = tested on: NCI/ADR-RES ovarian
SF-268 CNS = tested on: SF-268 CNS
SF-295 CNS = tested on: SF-295 CNS
UO-31 renal = tested on: UO-31 renal
M14 melanoma = tested on: M14 melanoma
MCF7 breast = tested on: MCF7 breast
HOP-92 NSCLC = tested on: HOP-92 NSCLC
OVCAR-4 ovarian = tested on: OVCAR-4 ovarian
SNB-75 CNS = tested on: SNB-75 CNS
TK-10 renal = tested on: TK-10 renal
BT-549 breast = tested on: BT-549 breast
HCT-116 colon = tested on: HCT-116 colon
RPMI-8226 leukemia = tested on: RPMI-8226 leukemia
MDA-MB-435 = tested on: MDA-MB-435
NCI-H522 lung = tested on: NCI-H522 lung
HT29 colon = tested on: HT29 colon
SK-OV-3 ovarian = tested on: SK-OV-3 ovarian
PC-3 prostate = tested on: PC-3 prostate
T-47D breast = tested on: T-47D breast
CCRF-CEM leukemia = tested on: CCRF-CEM leukemia
MDA-N = tested on: MDA-N
SF-539 CNS = tested on: SF-539 CNS
A498 renal = tested on: A498 renal
CAKI-1 renal = tested on: CAKI-1 renal
HOP-62 NSCLC = tested on: HOP-62 NSCLC
UACC-257 melanoma = tested on: UACC-257 melanoma
SR leukemia = tested on: SR leukemia
HL-60(TB) leukemia = tested on: HL-60(TB) leukemia
DU-145 prostate = tested on: DU-145 prostate
SK-MEL-28 melanoma = tested on: SK-MEL-28 melanoma

Question: What does the source list for `CCCCC(=O)Nc1ccc2cc(C(=O)OC)c(Cl)nc2n1`?
Answer: TGI (HCT-15 colon): > 100 µM; TGI (SK-MEL-5 melanoma): > 100 µM; TGI (IGROV1 ovarian): > 100 µM; TGI (SN12C renal): > 100 µM; TGI (LOX IMVI melanoma): > 100 µM; TGI (OVCAR-5 ovarian): > 100 µM; TGI (OVCAR-8 ovarian): > 100 µM; TGI (MOLT-4 leukemia): > 100 µM; TGI (ACHN renal): > 100 µM; TGI (NCI-H226 lung): > 100 µM; TGI (SK-MEL-2 melanoma): > 100 µM; TGI (U251 CNS): > 78 µM; TGI (COLO 205 colon): > 45.3 µM; TGI (HCC-2998 colon): 52.7 µM; TGI (786-0 renal): > 100 µM; TGI (EKVX NSCLC): > 100 µM; TGI (KM12 colon): 10.1 µM; TGI (A549 NSCLC): > 100 µM; TGI (RXF 393 renal): > 100 µM; TGI (NCI-H23 lung): > 100 µM; TGI (NCI-H460 lung): > 100 µM; TGI (OVCAR-3 ovarian): 17.6 µM; TGI (MALME-3M melanoma): > 100 µM; TGI (SNB-19 CNS): 38 µM; TGI (K-562 leukemia): > 100 µM; TGI (HS 578T breast): 46.9 µM; TGI (MDA-MB-231 breast): > 100 µM; TGI (UACC-62 melanoma): > 100 µM; TGI (SW-620 colon): > 100 µM; TGI (NCI/ADR-RES ovarian): > 100 µM; TGI (SF-268 CNS): > 100 µM; TGI (SF-295 CNS): > 96.7 µM; TGI (UO-31 renal): 57.7 µM; TGI (M14 melanoma): > 100 µM; TGI (MCF7 breast): > 100 µM; TGI (HOP-92 NSCLC): > 100 µM; TGI (OVCAR-4 ovarian): > 100 µM; TGI (SNB-75 CNS): > 100 µM; TGI (TK-10 renal): > 100 µM; TGI (BT-549 breast): > 100 µM; TGI (HCT-116 colon): > 100 µM; TGI (RPMI-8226 leukemia): > 100 µM; TGI (MDA-MB-435): > 100 µM; TGI (NCI-H522 lung): > 100 µM; TGI (HT29 colon): > 100 µM; TGI (SK-OV-3 ovarian): > 100 µM; TGI (PC-3 prostate): > 74.3 µM; TGI (T-47D breast): > 72.5 µM; TGI (CCRF-CEM leukemia): > 100 µM; TGI (MDA-N): > 100 µM; TGI (SF-539 CNS): > 100 µM; TGI (A498 renal): > 100 µM; TGI (CAKI-1 renal): > 100 µM; TGI (HOP-62 NSCLC): 20.6 µM; TGI (UACC-257 melanoma): > 100 µM; TGI (SR leukemia): > 100 µM; TGI (HL-60(TB) leukemia): 6.81 µM; TGI (DU-145 prostate): 10.1 µM; TGI (SK-MEL-28 melanoma): > 100 µM
